Measured values: patent US20220144815A1, “1,3,4-OXADIAZOLES AND THEIR DERIVATIVES AS NEW ANTIFUNGAL AGENTS” (Bayer Aktiengesellschaft, priority 2018, published 2022)

Experiment: Log P by HPLC on reversed phase columns, method [a] (EEC directive 79/831 Annex V.A8)
Assay type: physicochemical
Conditions: log P determined according to method [a] (HPLC on reversed phase columns)
Procedure: Measurement of Log P values as provided herein was performed according to EEC directive 79/831 Annex V.A8 by HPLC (High Performance Liquid Chromatography) on reversed phase columns with the following methods: • ^[a] Log P value is determined by measurement of LC-UV, in an acidic range, with 0.1% formic acid in water and acetonitrile as eluent (linear gradient from 10% acetonitrile to 95% acetonitrile). • ^[b] Log P value is determined by measurement of LC-UV, in a neutral range, with 0.001 molar ammonium acetate solution in water and acetonitrile as eluent (linear gradient from 10% acetonitrile to 95% acetonitrile). • ^[c] Log P value is determined by measurement of LC-UV, in an acidic range, with 0.1% phosphoric acid and acetonitrile as eluent (linear gradient from 10% acetonitrile to 95% acetonitrile). If more than one Log P value is available within the same method, all the values are given and separated by “+”. Calibration was done with straight-chain alkan2-ones (with 3 to 16 carbon atoms) with known Log P values (measurement of Log P values using retention times with linear interpolation between successive alkanones). Lambda-max-values were determined using UV-spectra from 200 nm to 400 nm and the peak values of the chromatographic signals In table 1, the log P values were determined according to method [^a]. In table 2, the log P values were determined according to method [^a].

| logP | SMILES |
| --- | --- |
| 1.92 | FC(F)c1nnc(-c2ccc(Cl)nc2)o1 [Example I-031] |
| 1.14 | CN(C)NC(=O)c1ccc(-c2nnc(C(F)F)o2)cn1 [Example I-042] |
| 3.32 | FC(F)c1nnc(-c2cnc(-c3ccccc3Cl)nc2)o1 [Example I-099] |
| 4.03 | FC(F)c1nnc(-c2ccc(COc3ccc(Cl)cc3)cc2)o1 [Example I-024] |
| 3.54 | Fc1ccccc1Nc1ccc(-c2nnc(C(F)(F)Cl)o2)cn1 [Example I-053] |
| 2.49 | FC(F)c1nnc(-c2cnc(Cc3ccccc3)nc2)o1 [Example I-075] |
| 2.01 | O=C(Nc1ccc(-c2nnc(C(F)F)o2)cc1)C(F)F [Example I-012] |
| 2.79 | Fc1ccc(C2(Nc3ccc(-c4nnc(C(F)F)o4)cn3)CC2)cc1 [Example I-054] |
| 2.64 | Fc1ccc(Nc2ncc(-c3nnc(C(F)F)o3)cn2)cc1 [Example I-095] |
| 0.60 | FC(F)c1nnc(-c2ccc(Cn3ccnc3)cc2)o1 [Example I-010] |
| 2.03 | FC(F)c1nnc(-c2cnc(-c3cccnc3)nc2)o1 [Example I-070] |
| 2.41 | O=C(O)c1ccc(-c2nnc(C(F)(F)F)s2)cc1 [Example I-008] |
| 3.84 | CC1(C)OB(c2ccc(-c3nnc(C(F)F)o3)cc2)OC1(C)C [Example I-021] |
| 2.90 | FC(F)c1nnc(-c2ccc(Oc3ccccc3)nc2)o1 [Example I-043] |
| 2.94 | CCc1noc(-c2ccc(-c3nnc(C(F)F)o3)cc2)n1 [Example I-015] |
| 2.33 | FC(F)c1nnc(-c2ccc(-c3ccco3)nc2)o1 [Example I-035] |
| 3.57 | Fc1ccccc1C1(Nc2ccc(-c3nnc(C(F)F)o3)cc2)CC1 [Example I-025] |
| 2.18 | CCn1nccc1-c1ncc(-c2nnc(C(F)F)o2)cn1 [Example I-078] |
| 2.20 | O=C(O)c1ccc(-c2nnc(C(F)(F)F)o2)cc1 [Example I-004] |
| 3.04 | CN(C(=O)c1ccc(-c2nnc(C(F)(F)F)o2)cc1)c1ccccc1 [Example I-026] |
| 2.57 | O=C(Nc1ccc(F)cc1F)c1ccc(-c2nnc(C(F)F)o2)cc1 [Example I-027] |
| 3.19 | Fc1ccccc1Nc1ccc(-c2nnc(C(F)F)o2)cc1 [Example I-017] |
| 2.59 | Fc1ccc(Cc2ncc(-c3nnc(C(F)F)o3)cn2)cc1 [Example I-091] |
| 3.26 | CC(C)(Nc1ncc(-c2nnc(C(F)F)o2)cn1)C1CC1 [Example I-084] |
| 2.43 | Fc1ccccc1Nc1ncc(-c2nnc(C(F)F)o2)cn1 [Example I-093] |

Same assay, conditions: reversed phase HPLC column; Method A: LC-UV, acidic range, 0.1% formic acid in water and acetonitrile; read-out: Log P

| chromatographic logP | SMILES |
| --- | --- |
| 1.93 | CCc1noc(-c2ccc(C(=O)NNC(=O)C(F)(F)F)cc2)n1 [IIa.14, 4-(3-ethyl-1,2,4-oxadiazol-5-yl)-N′-(trifluoroacetyl)benzohydrazide] |

Same assay, conditions: reversed phase HPLC column; log P determined according to method [a] (HPLC on reversed phase columns); read-out: logP

| chromatographic logP | SMILES |
| --- | --- |
| 2.51 | FC(F)c1nnc(-c2cnc(OC3(c4ccccc4)COC3)nc2)o1 [I.142, 5-[5-(difluoromethyl)-1,3,4-oxadiazol-2-yl]-2-[(3-phenyloxetan-3-yl)oxy]pyrimidine] |
| 3.1 | FC(F)c1nnc(-c2cnc(N3Cc4ccccc4C3)nc2)o1 [I.106, 2-{5-[5-(difluoromethyl)-1,3,4-oxadiazol-2-yl]pyrimidin-2-yl}isoindoline] |
| 3.3 | Fc1ccccc1Nc1ncc(-c2nnc(C(F)(F)F)s2)cn1 [I.130, N-(2-fluorophenyl)-5-[5-(trifluoromethyl)-1,3,4-thiadiazol-2-yl]pyrimidin-2-amine] |
| 2.85 | C[C@H](Nc1ncc(-c2nnc(C(F)F)o2)cn1)c1ccc(F)cc1 [I.125b, 5-[5-(difluoromethyl)-1,3,4-oxadiazol-2-yl]-N-[(1S)-1-(4-fluorophenyl)ethyl]pyrimidin-2-amine] |
| 3.25 | Fc1cccc(F)c1C1(Oc2ncc(-c3nnc(C(F)F)o3)cn2)CC1 [I.167, 5-[5-(difluoromethyl)-1,3,4-oxadiazol-2-yl]-2-{[1-(2,6-difluorophenyl)cyclopropyl]oxy}pyrimidine] |
| 2.59 | FC(F)c1nnc(-c2cnc(-c3ccnc(Cl)c3)nc2)o1 [I.102, 2-(2-chloropyridin-4-yl)-5-[5-(difluoromethyl)-1,3,4-oxadiazol-2-yl]pyrimidine] |
| 2.67 | Fc1cccc(F)c1CNc1ncc(-c2nnc(C(F)F)o2)cn1 [I.129, N-(2,6-difluorobenzyl)-5-[5-(difluoromethyl)-1,3,4-oxadiazol-2-yl]pyrimidin-2-amine] |
| 3.34 | CC(C)(Nc1ncc(-c2nnc(C(F)F)o2)cn1)c1c(F)cccc1F [I.168, 5-[5-(difluoromethyl)-1,3,4-oxadiazol-2-yl]-N-[2-(2,6-difluorophenyl)propan-2-yl]pyrimidin-2-amine] |
| 3.54 | CCCC(Nc1ncc(-c2nnc(C(F)F)o2)cn1)c1ccccc1 (racemic) [I.140, 5-[5-(difluoromethyl)-1,3,4-oxadiazol-2-yl]-N-[(1RS)-1-phenylbutyl]pyrimidin-2-amine] |

Same assay, conditions: reversed phase HPLC column; method [a], HPLC on reversed phase columns; read-out: logP

| chromatographic logP | SMILES |
| --- | --- |
| 3.42 | CC(Nc1ncc(-c2nnc(C(F)F)o2)cn1)c1ccccc1C(F)(F)F (racemic) [I.240, 5-[5-(difluoromethyl)-1,3,4-oxadiazol-2-yl]-N-{(1RS)-1-[2-(trifluoromethyl)phenyl]ethyl}pyrimidin-2-amine] |
| 3.84 | FC(F)c1nnc(-c2cnc(NC3(c4cc(Cl)ccc4Cl)CC3)nc2)o1 [I.251, N-[1-(2,5-dichlorophenyl)cyclopropyl]-5-[5-(difluoromethyl)-1,3,4-oxadiazol-2-yl]pyrimidin-2-amine] |
| 2.75 | COc1ccc(C(C)Nc2ncc(-c3nnc(C(F)F)o3)cn2)cc1 (racemic) [I.207, 5-[5-(difluoromethyl)-1,3,4-oxadiazol-2-yl]-N-[(1RS)-1-(4-methoxyphenyl)ethyl]pyrimidin-2-amine] |
| 1.92 | COC(=O)C(Nc1ncc(-c2nnc(C(F)F)o2)cn1)c1ccccn1 (centres unmarked) [I.222, methyl ({5-[5-(difluoromethyl)-1,3,4-oxadiazol-2-yl]pyrimidin-2-yl}amino)(pyridin-2-yl)acetate] |
| 3.8 | Cc1cccc(C)c1C1(Nc2ncc(-c3nnc(C(F)F)o3)cn2)CC1 [I.216, 5-[5-(difluoromethyl)-1,3,4-oxadiazol-2-yl]-N-[1-(2,6-dimethylphenyl)cyclopropyl]pyrimidin-2-amine] |
| 1.29 | FC(F)c1nnc(-c2cnc(NC3(c4cccnc4)CCCC3)nc2)o1 [I.218, 5-[5-(difluoromethyl)-1,3,4-oxadiazol-2-yl]-N-[1-(pyridin-3-yl)cyclopentyl]pyrimidin-2-amine] |
| 3.46 | Cc1ccc(C(C)(C)Nc2ncc(-c3nnc(C(F)F)o3)cn2)cc1 [I.204, 5-[5-(difluoromethyl)-1,3,4-oxadiazol-2-yl]-N-[2-(4-methylphenyl)propan-2-yl]pyrimidin-2-amine] |
| 2.99 | FC(F)c1nnc(-c2cnc(NC3(Cc4ccccc4)CC3)nc2)o1 [I.201, N-(1-benzylcyclopropyl)-5-[5-(difluoromethyl)-1,3,4-oxadiazol-2-yl]pyrimidin-2-amine] |
| 2.97 | Fc1ccc([C@H]2C[C@H]2Nc2ncc(-c3nnc(C(F)F)o3)cn2)cc1 (racemic) [I.206, 5-[5-(difluoromethyl)-1,3,4-oxadiazol-2-yl]-N-[rac-(1R,2R)-2-(4-fluorophenyl)cyclopropyl]pyrimidin-2-amine] |
| 2.39 | COc1ccc(C2(Nc3ncc(-c4nnc(C(F)F)o4)cn3)CC2)cc1OC [I.243, 5-[5-(difluoromethyl)-1,3,4-oxadiazol-2-yl]-N-[1-(3,4-dimethoxyphenyl)cyclopropyl]pyrimidin-2-amine] |
| 3.91 | O=C(N(c1ncc(-c2nnc(C(F)F)o2)cn1)C1(c2ccccc2F)CC1)C(F)(F)F [I.267, N-{5-[5-(difluoromethyl)-1,3,4-oxadiazol-2-yl]pyrimidin-2-yl}-2,2,2-trifluoro-N-[1-(2-fluorophenyl)cyclopropyl]acetamide] |
| 3.68 | FC(F)c1nnc(-c2cnc(NC(Cc3ccccc3)c3ccccc3)nc2)o1 (racemic) [I.245, 5-[5-(difluoromethyl)-1,3,4-oxadiazol-2-yl]-N-[(1RS)-1,2-diphenylethyl]pyrimidin-2-amine] |
| 4.38 | FC(F)c1nnc(-c2cnc(NC3(c4ccccc4Br)CCCCC3)nc2)o1 [I.268, N-[1-(2-bromophenyl)cyclohexyl]-5-[5-(difluoromethyl)-1,3,4-oxadiazol-2-yl]pyrimidin-2-amine] |
| 3.79 | Fc1ccccc1C1(Nc2ncc(-c3nnc(C(F)(F)F)s3)cn2)CC1 [I.178, N-[1-(2-fluorophenyl)cyclopropyl]-5-[5-(trifluoromethyl)-1,3,4-thiadiazol-2-yl]pyrimidin-2-amine] |
| 3.76 | Fc1ccccc1C1(Nc2ncc(-c3nnc(C(F)(F)Cl)o3)cn2)CC1 [I.179, 5-{5-[chloro(difluoro)methyl]-1,3,4-oxadiazol-2-yl}-N-[1-(2-fluorophenyl)cyclopropyl]pyrimidin-2-amine] |
